ChEMBL document CHEMBL5584339, “Design, Synthesis, and Evaluation of the Antitubercular Activity of 5-Phenyl Substituted-5, 6-dihydropyrido[2, 3-d]pyrimidine-4, 7(3H, 8H)-dione Compounds” (J Med Chem, 2024)
Values after ≈ are worked out from the molar mass of the structure shown.

Legend:
Assay type in all cases: functional
[1] = test system: Mycobacterium tuberculosis; experiment: Antitubercular activity against isoniazid/streptomycin/rifampicin/ethambutol/p-aminosalicylate/prothionamide/capreomycin resistant Mycobacterium tuberculosis 14862 incubated for 7 days by alamar blue assay; details: Mycobacterium tuberculosis, 14862, 168 h; time 7 day
[2] = test system: Mycobacterium tuberculosis; experiment: Antitubercular activity against isoniazid/streptomycin/rifampicin/ethambutol/p-aminosalicylate/rifabutin/ofloxacin resistant Mycobacterium tuberculosis 13946 incubated for 7 days by alamar blue assay; details: Mycobacterium tuberculosis, 13946, 168 h; time 7 day
[3] = test system: Mycobacterium tuberculosis; experiment: Antitubercular activity against isoniazid/rifampicin resistant Mycobacterium tuberculosis 16833 incubated for 7 days by alamar blue assay; details: Mycobacterium tuberculosis, 16833, 168 h; time 7 day
[4] = test system: Mycobacterium tuberculosis; experiment: Antitubercular activity against isoniazid/rifampicin resistant Mycobacterium tuberculosis 16995 incubated for 7 days by alamar blue assay; details: Mycobacterium tuberculosis, 16995, 168 h; time 7 day
[5] = test system: Mycobacterium tuberculosis; experiment: Antitubercular activity against isoniazid/rifampicin resistant Mycobacterium tuberculosis 12525 incubated for 7 days by alamar blue assay; details: Mycobacterium tuberculosis, 12525, 168 h; time 7 day

| SMILES | MIC [1] [µg/mL] | MIC [2] [µg/mL] | MIC [3] [µg/mL] | MIC [4] [µg/mL] | MIC [5] [µg/mL] |
| --- | --- | --- | --- | --- | --- |
| C=CCSc1nc2c(c(=O)[nH]1)C(c1ccc(OC)cc1[N+](=O)[O-])CC(=O)N2 (stereo not given) | 1 (≈ 2.57 µM) | 2 (≈ 5.15 µM) | 1 (≈ 2.57 µM) | 2 (≈ 5.15 µM) | 2 (≈ 5.15 µM) |
| CCCSc1nc2c(c(=O)[nH]1)[C@@H](c1ccc(OC)cc1[N+](=O)[O-])CC(=O)N2 | 0.059 (≈ 0.151 µM) | 0.125 (≈ 0.32 µM) | 0.06 (≈ 0.154 µM) | 0.125 (≈ 0.32 µM) | 0.125 (≈ 0.32 µM) |
| CCCSc1nc2c(c(=O)[nH]1)C(c1ccc(OC)cc1O)CC(=O)N2 (stereo not given) | 4 (≈ 11.1 µM) | 2 (≈ 5.53 µM) | 1 (≈ 2.77 µM) | 4 (≈ 11.1 µM) | 4 (≈ 11.1 µM) |
| CCCSc1nc2c(c(=O)[nH]1)[C@H](c1ccc(OC)cc1)CC(=O)N2 | 12.8 (≈ 37.1 µM) |  |  |  |  |
| CCC[S+]([O-])c1nc2c(c(=O)[nH]1)[C@@H](c1ccc(OC)cc1[N+](=O)[O-])CC(=O)N2 (stereo not given in full) | > 32 |  |  |  |  |
| C=CCSc1nc2c(c(=O)[nH]1)C(c1ccc(OC)cc1O)CC(=O)N2 (stereo not given) | 13.3 (≈ 36.9 µM) | 8 (≈ 22.3 µM) | 8 (≈ 22.3 µM) | 32 (≈ 89 µM) | 16 (≈ 44.5 µM) |
| CCCSc1nc2c(c(=O)[nH]1)C(c1ccc(OCC)cc1)CC(=O)N2 (stereo not given) | 0.25 (≈ 0.696 µM) | 2 (≈ 5.56 µM) | 0.5 (≈ 1.39 µM) | 1 (≈ 2.78 µM) | 1 (≈ 2.78 µM) |
| CCCS(=O)(=O)c1nc2c(c(=O)[nH]1)[C@H](c1ccc(OC)cc1)CC(=O)N2 | > 32 |  |  |  |  |
| CCCOc1ccc(C2CC(=O)Nc3nc(SCCC)[nH]c(=O)c32)cc1 (stereo not given) | 2 (≈ 5.36 µM) | 1 (≈ 2.68 µM) | 0.5 (≈ 1.34 µM) | 2 (≈ 5.36 µM) | 2 (≈ 5.36 µM) |
| CCCS(=O)(=O)c1nc2c(c(=O)[nH]1)[C@@H](c1ccc(OC)cc1[N+](=O)[O-])CC(=O)N2 | > 32 |  |  |  |  |
| CCCSc1nc2c(c(=O)[nH]1)C(c1ccc(OC)c(N)c1)CC(=O)N2 (stereo not given) | 4 (≈ 11.1 µM) | 16 (≈ 44.4 µM) | 4 (≈ 11.1 µM) | 8 (≈ 22.2 µM) | 8 (≈ 22.2 µM) |
| CCCSc1nc2c(c(=O)[nH]1)C(c1ccc(OC(C)C)cc1)CC(=O)N2 (stereo not given) | 2 (≈ 5.36 µM) | 1 (≈ 2.68 µM) | 1 (≈ 2.68 µM) | 2 (≈ 5.36 µM) | 4 (≈ 10.7 µM) |
| C=CCSc1nc2c(c(=O)[nH]1)C(c1ccc(OC)c(O)c1)CC(=O)N2 (stereo not given) | 15.6 (≈ 43.5 µM) | 4 (≈ 11.1 µM) | 4 (≈ 11.1 µM) | 16 (≈ 44.5 µM) | 8 (≈ 22.3 µM) |
| CCCSc1nc2c(c(=O)[nH]1)[C@@H](c1ccc(OC)cc1)CC(=O)N2 | 0.06 (≈ 0.174 µM) | 0.125 (≈ 0.362 µM) | 0.06 (≈ 0.174 µM) | 0.125 (≈ 0.362 µM) | 0.06 (≈ 0.174 µM) |
| CCCS(=O)(=O)c1nc2c(c(=O)[nH]1)[C@H](c1ccc(OC)cc1[N+](=O)[O-])CC(=O)N2 | > 32 |  |  |  |  |
| C=CCSc1nc2c(c(=O)[nH]1)C(c1ccc(OC)cc1)CC(=O)N2 (stereo not given) | 1 (≈ 2.91 µM) | 1 (≈ 2.91 µM) | 1 (≈ 2.91 µM) | 2 (≈ 5.82 µM) | 2 (≈ 5.82 µM) |
| CCCCSc1nc2c(c(=O)[nH]1)C(c1ccc(OC)cc1)CC(=O)N2 (stereo not given) | 1 (≈ 2.78 µM) | 2 (≈ 5.56 µM) | 1 (≈ 2.78 µM) | 2 (≈ 5.56 µM) | 2 (≈ 5.56 µM) |
| CCC[S+]([O-])c1nc2c(c(=O)[nH]1)[C@@H](c1ccc(OC)cc1)CC(=O)N2 (stereo not given in full) | > 32 |  |  |  |  |
| CCC[S+]([O-])c1nc2c(c(=O)[nH]1)[C@H](c1ccc(OC)cc1[N+](=O)[O-])CC(=O)N2 (stereo not given in full) | > 32 |  |  |  |  |
| CCCSc1nc2c(c(=O)[nH]1)[C@H](c1ccc(OC)cc1[N+](=O)[O-])CC(=O)N2 | 13.4 (≈ 34.4 µM) |  |  |  |  |
| CCCOc1ccc(C2CC(=O)Nc3nc(SCCC)[nH]c(=O)c32)c(O)c1 (stereo not given) | 2 (≈ 5.14 µM) | 8 (≈ 20.5 µM) | 2 (≈ 5.14 µM) | 8 (≈ 20.5 µM) | 8 (≈ 20.5 µM) |
| C=CCSc1nc2c(c(=O)[nH]1)C(c1ccc(OCC)cc1)CC(=O)N2 (stereo not given) | 1 (≈ 2.8 µM) | 4 (≈ 11.2 µM) | 4 (≈ 11.2 µM) | 4 (≈ 11.2 µM) | 4 (≈ 11.2 µM) |
| CCCSc1nc2c(c(=O)[nH]1)C(c1ccc(OC)c(O)c1)CC(=O)N2 (stereo not given) | 8 (≈ 22.1 µM) | 4 (≈ 11.1 µM) | 4 (≈ 11.1 µM) | 8 (≈ 22.1 µM) | 8 (≈ 22.1 µM) |
| C=CCSc1nc2c(c(=O)[nH]1)C(c1ccc(OCCC)cc1)CC(=O)N2 (stereo not given) | 4 (≈ 10.8 µM) | 1 (≈ 2.69 µM) | 1 (≈ 2.69 µM) | 4 (≈ 10.8 µM) | 4 (≈ 10.8 µM) |
| CCC[S+]([O-])c1nc2c(c(=O)[nH]1)[C@H](c1ccc(OC)cc1)CC(=O)N2 (stereo not given in full) | > 32 |  |  |  |  |
| CCCS(=O)(=O)c1nc2c(c(=O)[nH]1)[C@@H](c1ccc(OC)cc1)CC(=O)N2 | > 32 |  |  |  |  |
| CCCSc1nc2c(c(=O)[nH]1)C(c1ccc(OC)cc1[N+](=O)[O-])CC(=O)N2 (racemic) | 0.25 (≈ 0.64 µM) | 1 (≈ 2.56 µM) | 0.25 (≈ 0.64 µM) | 0.5 (≈ 1.28 µM) | 0.5 (≈ 1.28 µM) |
| CCCSc1nc2c(c(=O)[nH]1)C(c1ccc(OC)cc1)CC(=O)N2 (racemic) | 0.25 (≈ 0.724 µM) | 0.25 (≈ 0.724 µM) | 0.25 (≈ 0.724 µM) | 0.5 (≈ 1.45 µM) | 0.5 (≈ 1.45 µM) |
| NNC(=O)c1ccncc1 [ISONIAZID] | > 10 | > 10 | > 10 | > 10 | > 10 |
| CO[C@H]1/C=C/O[C@@]2(C)Oc3c(C)c(O)c4c(O)c(c(/C=N/N5CCN(C)CC5)c(O)c4c3C2=O)NC(=O)/C(C)=C\C=C\[C@H](C)[C@H](O)[C@@H](C)[C@@H](O)[C@@H](C)[C@H](OC(C)=O)[C@@H]1C [RIFAMPIN] | > 10 | > 10 | > 10 | > 10 | > 10 |
